Target: HIV protease (Human immunodeficiency virus type 1 group M subtype B, UniProt P04585)
Experiment: Assay for inhibition of microbial expressed viral protease (peptide substrate cleavage, HPLC readout)
Format: biochemical
Details: protease expressed in Eschericia coli; peptide substrate Val-Ser-Gln-Asn-(betanapthyl)Ala-Pro-Ile-Val 0.5 mg/mL; 50 mM Na acetate, pH 5.5, 30°C, 1 hour; read-out: IC₅₀
Protocol: Assay for Inhibition of Microbial Expressed Viral Protease
Inhibition studies of the reaction of the protease expressed in Eschericia coli with a peptide substrate [Val-Ser-Gln-Asn-(betanapthyl)Ala-Pro-Ile-Val, 0.5 mg/mL at the time the reaction is initiated] were in 50 mM Na acetate, pH 5.5, at 30°C for 1 hour. Various concentrations of inhibitor in 1.0 ul DMAO were added to 25 ul of the peptide solution in water. The reaction is initiated by the addition of 15 ul of 0.33 nM protease (0.11 ng) in a solution of 0.133 M Na acetate pH 5.5 and 0.26% bovine serum albumin. The reaction was quenched with 160 ul of 5% phosphoric acid. Products of the reaction were separated by HPLC (VYDAC wide pore 5 cm C-18 reverse phase, acetonitrile gradient, 0.1% phosphoric acid). The extent of inhibition of the reaction was determined from the peak heights of the products.

IC50: ~0.7 nM
SMILES: O=C(N[C@H]1c2ccccc2C[C@H]1O)[C@H](Cc1ccccc1)CC(O)C[C@@H](Cc1ccccc1)C(=O)N[C@H]1c2ccccc2C[C@H]1O [Example 1, N,N-bis-(2(R)-hydroxy-1(S)-indanyl)-2, 6(R,R)diphenylmethyl-4-hydroxy-1,7-heptanediamide]

From patent publication EP0480714A2, “HIV protease inhibitors having symmetrical structure” (MERCK & CO. INC., priority 1990, dated 1992)
